# Source: patent US10174067B2, “Type of cytidine derivative and application thereof” (priority 2014, dated 2019)
# Marks after values point to notes of the source that are not given here.
# Legend:
# [1] = tested on: HCT-116 colon cancer xenografts; assay: Tumor growth inhibition of HCT-116 colon cancer xenografts in tumor-bearing nude mice (tumor volume, TGI %, RTV, T/C %); format: in vivo, Balb/c Nude mice; settings: G10-G16 groups, single IP 400 mg/kg
# In short: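 Nude mice inoculated with HCT-116 cells (about 3×10^7 cells/mL in serum-free medium). Tumor diameter measured three times weekly and volume computed as V=3/4π(D/2)^3. Activity expressed as TGI (%) and T/C (%) from relative tumor volume Vt/V0, with V0 taken at grouping and dosing start; P<0.05 significant.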
# ICR mice = assay: in vivo; settings: female ICR mice; single-dose ip
# In short: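 Female SPF ICR mice received a single ip dose in ethanol/Cremophor EL/saline (5:5:90), with dose lowered after deaths and raised otherwise. MTD defined as dose causing no death, no >10% weight loss versus Day 0 and no significant side effects; daily weights and twice-daily clinical observation over 7-14 days.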
# [2] = In short: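 Female SPF Balb/c nude mice bearing subcutaneous HCT-116 xenografts (3×10^6 cells, right hind limb), grouped at 60–150 mm^3, 6 per group; vehicle ethanol/Cremophor EL/saline 5:5:90. Body weight thrice weekly; tumours excised and weighed at sacrifice; Mean±SEM, unpaired t-test, P<0.05.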
# [3] = Day 1, G10-G16 groups, single IP 400 mg/kg, Mean±SEM
# [4] = Day 2, G10-G16 groups, single IP 400 mg/kg, Mean±SEM
# [5] = Day 4, G10-G16 groups, single IP 400 mg/kg, Mean±SEM
# [6] = Day 7, G10-G16 groups, single IP 400 mg/kg, Mean±SEM
# [7] = Day 9, G10-G16 groups, single IP 400 mg/kg, Mean±SEM
# [8] = Day 11, G10-G16 groups, single IP 400 mg/kg, Mean±SEM
# [9] = Day 14, G10-G16 groups, single IP 400 mg/kg, Mean±SEM
# [10] = Day 16, G10-G16 groups, single IP 400 mg/kg, Mean±SEM
# [11] = Day 18, G10-G16 groups, single IP 400 mg/kg, Mean±SEM
# [12] = Day 21, G10-G16 groups, single IP 400 mg/kg, Mean±SEM
# [13] = Day 23, G10-G16 groups, single IP 400 mg/kg, Mean±SEM
# [14] = Day 25, G10-G16 groups, single IP 400 mg/kg, Mean±SEM
# [15] = Day 28, G10-G16 groups, single IP 400 mg/kg, Mean±SEM
# [16] = Day 30, G10-G16 groups, single IP 400 mg/kg, Mean±SEM
structure (smiles),measurement,setting,value
CCCCOC(=O)Nc1nc(=O)n(C2OC(COC(=O)COc3nc(Cl)c(Cl)cc3Cl)C(O)C2(F)F)cc1Br (stereo not shown) [Compound G16],Day 0 (RTV),[1]; Day 0,1.00
same,"Tumor volume, Day 0","[1]; Day 0, Mean±SEM",52.57 ± 10.93** mm^3
same,Day 1 (TGI %),[1]; Day 1,63.52%
same,Day 1 (RTV),"[1]; Day 1, Mean±SEM",1.25 ± 0.20
same,"Tumor volume, Day 1","[1]; Day 1, Mean±SEM",65.85 ± 18.30** mm^3
same,Day 2 (TGI %),[1]; Day 2,56.02%
same,Day 2 (RTV),"[1]; Day 2, Mean±SEM",2.10 ± 0.74
same,"Tumor volume, Day 2","[1]; Day 2, Mean±SEM",97.57 ± 24.94** mm^3
same,Day 4 (TGI %),[1]; Day 4,52.31%
same,Day 4 (RTV),"[1]; Day 4, Mean±SEM",3.10 ± 1.46
same,Day 7 (TGI %),[1]; Day 7,45.07%
same,Day 7 (RTV),"[1]; Day 7, Mean±SEM",5.12 ± 2.41
same,"Tumor volume, Day 7","[1]; Day 7, Mean±SEM",237.57 ± 74.65* mm^3
same,Day 9 (TGI %),[1]; Day 9,33.79%
same,Day 9 (RTV),"[1]; Day 9, Mean±SEM",8.09 ± 3.62
same,"Tumor volume, Day 9","[1]; Day 9, Mean±SEM",390.87 ± 115.68 mm^3
same,Day 11 (TGI %),[1]; Day 11,36.38%
same,Day 11 (RTV),"[1]; Day 11, Mean±SEM",12.66 ± 5.21
same,"Tumor volume, Day 11","[1]; Day 11, Mean±SEM",621.03 ± 173.32 mm^3
same,Day 14 (TGI %),[1]; Day 14,27.91%
same,Day 14 (RTV),"[1]; Day 14, Mean±SEM",20.81 ± 7.22
same,"Tumor volume, Day 14","[1]; Day 14, Mean±SEM",1038.23 ± 262.72 mm^3
same,Day 16 (TGI %),[1]; Day 16,27.25%
same,Day 16 (RTV),"[1]; Day 16, Mean±SEM",26.35 ± 8.64
same,"Tumor volume, Day 16","[1]; Day 16, Mean±SEM",1317.52 ± 322.74 mm^3
same,Day 18 (TGI %),[1]; Day 18,21.59%
same,Day 18 (RTV),"[1]; Day 18, Mean±SEM",31.97 ± 10.14
same,"Tumor volume, Day 18","[1]; Day 18, Mean±SEM",1566.87 ± 378.64 mm^3
same,Day 21 (TGI %),[1]; Day 21,23.19%
same,Day 21 (RTV),"[1]; Day 21, Mean±SEM",38.61 ± 9.84
same,"Tumor volume, Day 21","[1]; Day 21, Mean±SEM",1877.91 ± 388.81 mm^3
same,Day 23 (TGI %),[1]; Day 23,18.55%
same,Day 23 (RTV),"[1]; Day 23, Mean±SEM",39.81 ± 9.58
same,"Tumor volume, Day 23","[1]; Day 23, Mean±SEM",1923.55 ± 392.05 mm^3
same,Day 25 (TGI %),[1]; Day 25,18.29%
same,Day 25 (RTV),"[1]; Day 25, Mean±SEM",43.89 ± 10.29
same,"Tumor volume, Day 25","[1]; Day 25, Mean±SEM",2110.15 ± 421.51 mm^3
same,Day 28 (TGI %),[1]; Day 28,38.94%
same,Day 28 (RTV),"[1]; Day 28, Mean±SEM",39.62 ± 10.42
same,"Tumor volume, Day 28","[1]; Day 28, Mean±SEM",1642.01 ± 659.32 mm^3
same,Day 30 (TGI %),[1]; Day 30,52.84%
same,Day 30 (RTV),"[1]; Day 30, Mean±SEM",38.70 ± 10.60
same,"Tumor volume, Day 30","[1]; Day 30, Mean±SEM",1323.36 ± 626.45 mm^3
same,"dose that could be tolerated (maximum tolerated dose, MTD)",ICR mice,400 mg/kg
same,"Weight change rate, Day 0","[2]; Day 0, G10-G16 groups, single IP 400 mg/kg",0.00%
same,"Weight of mice, Day 0","[2]; Day 0, G10-G16 groups, single IP 400 mg/kg, Mean±SEM",20.60 ± 0.23 g
same,"Weight change rate, Day 1",[2]; [3],−0.99 ± 0.59%
same,"Weight of mice, Day 1",[2]; [3],20.40 ± 0.32 g
same,"Weight change rate, Day 2",[2]; [4],−0.79 ± 0.84%
same,"Weight of mice, Day 2",[2]; [4],20.45 ± 0.30 g
same,"Weight change rate, Day 4",[2]; [5],−0.38 ± 1.13%
same,"Weight of mice, Day 4",[2]; [5],20.62 ± 0.28 g
same,"Weight change rate, Day 7",[2]; [6],−1.73 ± 0.99 %
same,"Weight of mice, Day 7",[2]; [6],20.43 ± 0.27 g
same,"Weight change rate, Day 9",[2]; [7],1.99 ± 1.71 %
same,"Weight of mice, Day 9",[2]; [7],21.03 ± 0.23 g
same,"Weight change rate, Day 11",[2]; [8],3.60 ± 1.31%
same,"Weight of mice, Day 11",[2]; [8],21.32 ± 0.26 g
same,"Weight change rate, Day 14",[2]; [9],1.54 ± 2.06 %
same,"Weight of mice, Day 14",[2]; [9],20.87 ± 0.22 g
same,"Weight change rate, Day 16",[2]; [10],2.61 ± 2.41%
same,"Weight of mice, Day 16",[2]; [10],21.02 ± 0.33 g
same,"Weight change rate, Day 18",[2]; [11],6.99 ± 2.87 %
same,"Weight of mice, Day 18",[2]; [11],21.80 ± 0.44 g
same,"Weight change rate, Day 21",[2]; [12],5.42 ± 2.41 %
same,"Weight of mice, Day 21",[2]; [12],21.55 ± 0.34 g
same,Day 22 Mortality,"[2]; Day 22, single IP dose (mg/kg)",0%
same,"Weight change rate, Day 23",[2]; [13],7.14 ± 3.88%
same,"Weight of mice, Day 23",[2]; [13],21.78 ± 0.58 g
same,"Weight change rate, Day 25",[2]; [14],7.62 ± 3.76%
same,"Weight of mice, Day 25",[2]; [14],21.83 ± 0.59 g
same,"Weight change rate, Day 28",[2]; [15],3.66 ± 3.27%
same,"Weight of mice, Day 28",[2]; [15],21.27 ± 0.43 g
same,"Weight change rate, Day 30",[2]; [16],4.94 ± 2.45%
same,"Weight of mice, Day 30",[2]; [16],21.20 ± 0.60 g
same,clinical symptoms,"[2]; after single IP dose, compared with model control group",no significant differences in clinical symptoms
